From ChEMBL document CHEMBL1201862, “PubChem BioAssay data set” (2004)
Activity calls are given as the source filed them. Rule as the data show it, for most assays here: actives have a measured EC50 and inactives only a lower limit.

Assays:
[1] = target: T1, Replicative DNA helicase DnaB (Mycobacterium tuberculosis, UniProt P9WMR3); assay: DnaB intein splicing inhibitors, dose response, biochemical, cell-free fluorescence (AID 449749); format: functional
T1 sequence (P9WMR3 whole entry): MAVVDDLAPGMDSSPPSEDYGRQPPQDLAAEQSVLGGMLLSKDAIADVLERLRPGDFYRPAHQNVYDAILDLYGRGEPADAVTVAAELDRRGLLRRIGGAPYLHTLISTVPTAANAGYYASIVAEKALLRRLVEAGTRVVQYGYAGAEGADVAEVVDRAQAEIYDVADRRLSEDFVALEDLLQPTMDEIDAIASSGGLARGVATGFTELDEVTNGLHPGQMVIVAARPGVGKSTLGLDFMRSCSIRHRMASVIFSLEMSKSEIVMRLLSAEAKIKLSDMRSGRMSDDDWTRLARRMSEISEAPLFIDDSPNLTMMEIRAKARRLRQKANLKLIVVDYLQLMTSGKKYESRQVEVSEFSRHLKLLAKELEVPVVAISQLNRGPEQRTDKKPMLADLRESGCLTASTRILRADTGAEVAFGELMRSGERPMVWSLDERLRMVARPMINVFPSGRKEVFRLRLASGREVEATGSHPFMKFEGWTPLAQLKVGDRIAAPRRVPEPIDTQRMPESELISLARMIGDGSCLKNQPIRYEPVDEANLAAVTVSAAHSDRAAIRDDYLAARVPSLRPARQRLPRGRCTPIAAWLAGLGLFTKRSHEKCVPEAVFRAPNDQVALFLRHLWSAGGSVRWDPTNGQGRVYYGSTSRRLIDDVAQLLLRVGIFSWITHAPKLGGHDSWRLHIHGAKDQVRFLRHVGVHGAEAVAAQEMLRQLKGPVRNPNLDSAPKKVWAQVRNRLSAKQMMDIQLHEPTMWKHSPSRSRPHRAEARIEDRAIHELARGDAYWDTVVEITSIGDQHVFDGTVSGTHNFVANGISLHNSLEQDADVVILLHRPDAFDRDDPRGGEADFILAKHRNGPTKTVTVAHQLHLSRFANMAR

Protein RecA = target: T2, Protein RecA (Mycobacterium tuberculosis, UniProt P9WHJ3); assay: Fluorescence Cell-Free Homogeneous Dose Retest to Identify Inhibitors of RecA-Intein Splicing Activity. [Related pubchem assays (depositor defined):AID2097, AID2223, AID489010, AID492950]; format: functional
T2 sequence (P9WHJ3 whole entry): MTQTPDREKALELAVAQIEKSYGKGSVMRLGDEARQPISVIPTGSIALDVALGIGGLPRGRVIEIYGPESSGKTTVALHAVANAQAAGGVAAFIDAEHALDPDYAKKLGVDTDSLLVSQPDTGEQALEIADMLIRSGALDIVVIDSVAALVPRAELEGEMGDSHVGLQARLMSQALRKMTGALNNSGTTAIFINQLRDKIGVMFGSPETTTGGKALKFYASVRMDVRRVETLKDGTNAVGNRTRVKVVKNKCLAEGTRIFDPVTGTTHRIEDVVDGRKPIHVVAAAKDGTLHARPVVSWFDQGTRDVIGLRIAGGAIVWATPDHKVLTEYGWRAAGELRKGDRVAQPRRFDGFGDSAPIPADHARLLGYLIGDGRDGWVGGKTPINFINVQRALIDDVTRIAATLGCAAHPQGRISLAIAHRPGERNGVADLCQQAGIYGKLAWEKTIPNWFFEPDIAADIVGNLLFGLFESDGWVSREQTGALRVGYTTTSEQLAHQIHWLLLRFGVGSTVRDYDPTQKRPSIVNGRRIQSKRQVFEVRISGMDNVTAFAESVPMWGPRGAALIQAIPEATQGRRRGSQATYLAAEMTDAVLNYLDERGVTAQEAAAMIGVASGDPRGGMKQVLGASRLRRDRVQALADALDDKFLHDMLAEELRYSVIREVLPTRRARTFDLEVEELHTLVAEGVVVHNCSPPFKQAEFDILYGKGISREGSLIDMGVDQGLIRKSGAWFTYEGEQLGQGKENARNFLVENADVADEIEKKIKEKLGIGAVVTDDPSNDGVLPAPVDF

Cytochrome P450 1A2 = target: T3, Cytochrome P450 1A2 (Homo sapiens, UniProt P05177);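 also: PubChem cytochrome P450 panel assay, CYP1A2 panel member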
T3 sequence (P05177 whole entry): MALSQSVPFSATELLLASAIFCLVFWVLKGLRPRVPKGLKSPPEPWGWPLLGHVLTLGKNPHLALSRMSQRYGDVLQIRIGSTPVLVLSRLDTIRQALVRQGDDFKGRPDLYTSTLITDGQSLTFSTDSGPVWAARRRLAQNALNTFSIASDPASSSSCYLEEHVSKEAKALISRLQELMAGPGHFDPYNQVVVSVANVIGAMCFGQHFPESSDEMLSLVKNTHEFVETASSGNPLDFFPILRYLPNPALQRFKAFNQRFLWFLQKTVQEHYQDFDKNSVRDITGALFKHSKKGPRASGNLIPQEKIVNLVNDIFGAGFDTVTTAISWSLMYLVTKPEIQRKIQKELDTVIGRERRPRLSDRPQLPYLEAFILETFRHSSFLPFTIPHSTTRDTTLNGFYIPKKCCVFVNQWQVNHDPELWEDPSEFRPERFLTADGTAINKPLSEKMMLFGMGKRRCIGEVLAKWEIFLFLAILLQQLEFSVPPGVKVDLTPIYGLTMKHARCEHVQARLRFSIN

INS1 = assay: INS-1E survival protection against cytokine death – cell-based, luminescence, retest, dose response (AID 449756); format: functional; conditions: Rattus norvegicus;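 also: cell death triggered by IL-1 beta plus TNF-alpha plus IFN-gamma mixture; protective hits raise ATP signal compared with cytokine alone wells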
[2] = NIH-3T3 fibroblast cytotoxicity, dose response, cytotoxicity control, cell-based, fluorescence, Alamar Blue, secondary assay (AID 2327); format: functional;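 also: NIH-3T3 mouse fibroblasts cultured with fluconazole at 8 µg/mL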
[3] = fluconazole-exposed Candida albicans growth modulators – fluorescence, retest, confirmation (AID 2467); format: functional, cell-based
[4] = target: T4, Heat shock factor protein 1 (Mus musculus, UniProt P38532); assay: enhancement of HSF1-driven luciferase signal – cell-based, NIH3T3, luminescence, dose retest, confirmation (AID 435004); format: functional;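 also: stress induced by proteasome inhibitor MG132 added 30 min after compound; luciferase reporter driven by HSF1 response element in NIH3T3 cells; actives raise luminescence as potentiators of the MG132 stress response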
T4 sequence (P38532 whole entry): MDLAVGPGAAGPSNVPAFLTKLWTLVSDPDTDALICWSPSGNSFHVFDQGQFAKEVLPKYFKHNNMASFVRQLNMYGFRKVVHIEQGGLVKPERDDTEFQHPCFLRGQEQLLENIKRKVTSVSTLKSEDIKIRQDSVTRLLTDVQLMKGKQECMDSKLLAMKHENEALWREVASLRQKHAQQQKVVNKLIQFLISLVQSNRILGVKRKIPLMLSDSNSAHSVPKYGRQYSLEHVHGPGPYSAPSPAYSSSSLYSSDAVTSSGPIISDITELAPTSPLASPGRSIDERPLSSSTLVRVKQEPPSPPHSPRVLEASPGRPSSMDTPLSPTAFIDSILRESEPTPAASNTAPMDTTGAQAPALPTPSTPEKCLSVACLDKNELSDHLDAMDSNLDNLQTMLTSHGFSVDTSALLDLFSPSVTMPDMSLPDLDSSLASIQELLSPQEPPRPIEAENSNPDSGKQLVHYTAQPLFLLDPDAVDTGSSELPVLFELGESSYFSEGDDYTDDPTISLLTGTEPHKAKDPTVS

[5] = Trypanosoma cruzi growth suppression in host cells – NIH3T3 host cells, beta-gal luminescence, confirmation (AID 2044); format: functional, cell-based;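 also: intracellular parasites grown in NIH/3T3 mouse fibroblasts as host cells; luminescent beta-galactosidase reporter signal from transgenic T. cruzi replicating inside host cells; inhibitors lower the luminescence signal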
[6] = NIH3T3 cell viability loss – ATP luminescence, mouse fibroblasts, counter-screen, dose response (AID 2010); format: functional, cell-based;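 also: cells exposed to compound for about 90 hours before reading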
[7] = reduction of Shn3 3'UTR-driven luciferase in osteoblasts – cell-based, Clone20 osteoblasts, firefly luciferase, cherry-picked, dose response (AID 624132); format: functional;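 also: firefly luciferase luminescence from reporter carrying the Shn3 3'UTR in osteoblasts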
[8] = non-specific 3'UTR reporter inhibition in Clone20-Shn3RL – cell-based, Renilla luciferase, cherry-picked, counter-screen for Shn3 inhibitor project, dose response (AID 624133); format: functional
[9] = Luminescence Cell-Based Dose Retest to Confirm Inhibitors of Cancer Stem Cells. [Related pubchem assays (depositor defined):AID2717, AID2721]; format: functional; conditions: Homo sapiens
[10] = system: Streptococcus sp. 'group A'; assay: Streptococcus pyogenes SK(-)GAS viability under kanamycin – luminescence, BacTiterGlo, confirmation, counter-screen for streptokinase expression inhibitor project, dose response (AID 1900); format: functional, organism-based
Streptokinase A = target: T5, Streptokinase A (Streptococcus pyogenes serotype M1, UniProt P10520); assay: viability-normalized secreted streptokinase activity reduction – plasminogen activation absorbance, OD405, dose response (AID 1914); format: functional, Streptococcus pyogenes M1 GAS;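 also: secreted streptokinase activity via plasminogen activation per viability signal from cell pellet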
T5 sequence (P10520 whole entry): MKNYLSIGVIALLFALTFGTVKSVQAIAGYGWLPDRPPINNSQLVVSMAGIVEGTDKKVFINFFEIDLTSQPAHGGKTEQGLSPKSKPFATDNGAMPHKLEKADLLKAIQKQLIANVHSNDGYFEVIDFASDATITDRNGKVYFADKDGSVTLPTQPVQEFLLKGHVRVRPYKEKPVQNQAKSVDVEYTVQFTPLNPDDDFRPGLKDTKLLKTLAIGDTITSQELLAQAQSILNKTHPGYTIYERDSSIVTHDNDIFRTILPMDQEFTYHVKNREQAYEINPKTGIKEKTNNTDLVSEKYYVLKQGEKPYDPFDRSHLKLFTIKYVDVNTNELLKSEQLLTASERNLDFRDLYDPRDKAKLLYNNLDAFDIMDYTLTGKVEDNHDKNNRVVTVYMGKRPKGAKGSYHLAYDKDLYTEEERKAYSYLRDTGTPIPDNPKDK

Streptococcus = assay: GAS UMAA2166 growth inhibition – luminescence, BacTiterGlo, counter-screen for streptokinase expression inhibitor project, dose response (AID 1915); format: functional, organism-based;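 also: potency for reduction of bacterial viability or growth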
[11] = Luminescence Cell-Based Dose Response HTS to Identify Inhibitors of 5'UTR Stem-Loop Driven Prion Protein mRNA Translation in H4 Neuroglioblastoma Cells. [Related pubchem assays: 1827 (Project Summary), 1813 (Primary HTS)]; format: functional
[12] = alpha-synuclein stem-loop luciferase translation blockers – H4 neuroglioma cells, luminescence, confirmation (AID 1988); format: functional, cell-based

Cc1[nH]c2ccccc2c1CCNC(=O)c1ccc2c(c1[N+](=O)[O-])C(=O)c1ccccc1C2=O
AC50 [1]: 10.1 µM (active)
EC50 (Protein RecA): 3.26 µM (active)
AC50 (Cytochrome P450 1A2): 4.47 µM (inconclusive)

Cc1ccc(C2CC(c3ccc(C)cc3)n3nc(N)nc3N2)cc1 (stereo not drawn)
AC50 (INS1): 28.7 µM (active)

Cc1ccc(NC(=O)NCc2ccccn2)c(C)c1
EC50 [2]: > 160 µM (inactive)
EC50 [3]: 6.59 µM (active)

O=C(O)c1ccc(/C=C(\c2nc3ccccc3[nH]2)c2nc3ccccc3s2)cc1
AC50 [1]: > 380 µM (inactive)
EC50 (Protein RecA): 21 µM (active)

Cc1cccc(NC2=NC(=S)N(c3cccc(C(=O)O)c3)C23CCCCC3)c1
EC50 [2]: 19.7 µM (inconclusive)
EC50 [3]: 2.12 µM (active)

COc1cc2nc(S)nc(NCc3cccs3)c2cc1OC
EC50 [4]: > 260 µM (inactive)

CN(CCCNC(=O)CCCOc1cc(=O)n(C)c2ccccc12)Cc1ccccc1
EC50 [2]: > 160 µM (inactive)
EC50 [3]: > 38 µM (not active)
EC50 [5]: 0.46 µM (active)
EC50 [6]: > 30 µM (not active)

Cc1ccc2cccc(NC(=O)C(F)(F)F)c2n1
EC50 [4]: > 260 µM (inactive)

NC(=O)c1cc(N2C(=O)C=CC2=O)ccc1Cl
AC50 [7]: 11.3 µM (active)
AC50 [8]: 25.5 µM (active)

CN1CC(C(=O)c2ccc(F)cc2)C(c2c(F)cccc2Cl)C1 (stereo not drawn)
EC50 [4]: > 260 µM (inactive)

Cc1nc2cc3[nH]c(C(F)(F)F)nc3cc2[nH]1
EC50 [4]: > 260 µM (inactive)

C#CC[N+]1(CC#Cc2ccccc2)CCCCC1
EC50 [4]: > 260 µM (inactive)

CCOC(=O)C1CCCN(c2cc(C)nc3cc(-c4ccc(F)cc4)nn23)C1 (stereo not drawn)
EC50 [2]: > 160 µM (inactive)
EC50 [3]: > 38 µM (not active)

O=C(O)c1ccc(-n2c(=O)c3ccccc3c3ccccc3c2=O)cc1
AC50 [1]: 15.8 µM (active)
EC50 (Protein RecA): 70.7 µM (active)

COc1ccc2nc(N=Nc3ccc(O)c4ccccc34)sc2c1
AC50 [9]: 1.73 µM (active)
AC50 (INS1): 2.09 µM (active)

Cc1ccc(-n2nc3c(c2NC(=O)c2ccc4c(c2)OCO4)CSC3)c(C)c1
EC50 [4]: > 260 µM (inactive)

O=C1c2ccccc2C2=Nc3ccccc3SC(c3ccc(Cl)cc3)C12 (stereo not drawn)
EC50 [10]: 2.87 µM (active)
EC50 (Streptokinase A): > 150 µM (not active)
EC50 (Streptococcus): 4.58 µM (active)
AC50 [9]: 5.23 µM (active)
AC50 (INS1): 14.1 µM (active)

CCCCc1ccc(-c2ccc(C)cc2O)nc1
EC50 [11]: 11.7 µM (inconclusive)
EC50 [12]: 4.33 µM (active)

Cc1cc2nc(Sc3c([N+](=O)[O-])nc(C)n3Cc3ccccc3)[nH]c2cc1C
AC50 [1]: 11.3 µM (active)
EC50 (Protein RecA): 7.56 µM (active)

COC(/C(=N/O)c1ccc(Cl)cc1)c1ccccc1 (stereo not drawn)
AC50 (INS1): 2.72 µM (active)

O=C(CN1CCCc2ccccc21)N/N=C/c1ccccc1O
AC50 (INS1): 4.81 µM (active)

O=C(N/N=C/c1ccc([N+](=O)[O-])o1)c1ccccc1NS(=O)(=O)c1cccs1
AC50 [1]: > 380 µM (inactive)
EC50 (Protein RecA): 125 µM (active)

O=C(Nc1ccccc1O)c1ccccc1O
EC50 [2]: > 150 µM (inactive)
EC50 [3]: 6.43 µM (active)
